Read-outs that look alike come from different tables or passages of the source.
How the values were obtained:
[1] = test system: MDR1-MDCK cell monolayers; assay: MDCK-MDR1 permeability assay (BBB penetration potential); assay type: in vitro ADME; conditions: dog, MDCK-MDR1, 120 min, 5 μM, pH 7.4
Description: (§1) Each determination is performed in duplicate. […] Analytical conditions are outlined below.

MDR1 = assay: as above; assay type: in vitro ADME; conditions: dog; for efflux ratio at 120 min, 5 μM: MDCK-MDR1, pH 7.4, MDCK-MDR1: Efflux; for Papp A→B at 120 min, 5 μM: MDCK-MDR1, pH 7.4, MDCK-MDR1: Papp A-B; for Papp B→A at 120 min, 5 μM: MDCK-MDR1, pH 7.4, MDCK-MDR1: Papp B-A
Description: as §1

mHTT protein = mHTT protein assay (2B7-MW1, Mesoscale Discovery); assay type: cell-based, human; conditions: GM04724 (CAG 70/20) Huntington's disease patient lymphoblast cells, 48 hours, 2B7-MW1 MSD; read-out: HTT Potency - Protein EC50 mHTT (average)
Method in brief: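 mHTT levels were read with the 2B7-MW1 antibody pair (N17 and polyQ epitopes) on MSD after 48 h dosing, 10 μM–0.6 nM. Cells were GM04724 HD lymphoblasts (CAG 70/20). A replica plate was read by CTG for cell viability.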

[2] = test system: Huntingtin (HTT) transcripts; assay: Quantitative splicing assay (HTT), qPCR; assay type: cell-based; conditions: Homo sapiens, GM04724 (CAG 70/20) Huntington's disease patient lymphoblasts, 24 h
Description: GM04724 (CAG 70/20) Huntington's disease patient lymphoblasts (Coriell) are plated in 96-wel v-bottom plates at 50,000 cells/well. Immediately after plating, cells are dosed with compound for 24 h at concentrations ranging from 2.5 uM to 0.15 nM (0.1% DMSO). Treated cells are lysed and cDNA synthesized using the Fast Advanced Cells-to-Ct kit (Thermofisher A35378) according to the manufacturer's instructions. 2 uL of each cDNA are used in qPCR reactions to confirm the compound-induced inclusion of a cryptic exon within intron 49 of the Huntingtin (HTT) transcripts. The qPCR reactions are prepared in 384-well plates in 10 uL volume, using TaqMan™ Fast Advanced Master Mix [ThermoFisher; 4444965] with primers and probes shown in the table below. Reactions are run in a Quant Studio 6 qPCR instrument with default settings.

[3] = qPCR HTTex49_50, read-out: HTT Potency - Splicing: E49-50 EC50 (average)
[4] = qPCR cryptic exon 49b inclusion, read-out: HTT Potency - Splicing: E49b EC50 (average)

| SMILES | MDCK-MDR1: % Recov A-B [1] [%] | MDCK-MDR1: % Recov B-A [1] [%] | efflux ratio at 120 min, 5 μM (MDR1) | Papp A→B at 120 min, 5 μM (MDR1) [nm/s] | Papp B→A at 120 min, 5 μM (MDR1) [nm/s] | EC50 (mHTT protein) [nM] | EC50 [2, 3] [nM] | EC50 [2, 4] [nM] |
| --- | --- | --- | --- | --- | --- | --- | --- | --- |
| Cn1c(=O)oc2cc(-c3ccc(O[C@@H]4C[C@H]5CCC[C@H](N5)[C@@H]4F)nn3)c(O)cc21 (single isomer, unassigned) [74-ENT1] | 96 | 88 | 4 | 56 | 228 | 501 to 10000 | 101 to 500 | 501 to 10000 |
| Cn1cnc2cc(O)c(-c3ccc(O[C@@H]4C[C@@]5(C)CCC[C@](C)(N5)[C@@H]4F)nn3)cc2c1=O (single isomer, unassigned) [133-ENT2] | 92 | 90 | 12 | 52.5 | 609 | 0.01 to 15 | 51 to 100 | 51 to 100 |
| Cn1cc(-c2ccc(-c3ccc(O[C@H]4C[C@@H]5CCC[C@@H](N5)[C@@H]4F)nn3)c(O)c2)cn1 (single isomer, unassigned) [49-ENT2] | 46 | 75 | 3 | 46.2 | 154 | 16 to 50 | 16 to 50 | 0.01 to 15 |
| Cn1ccc(-c2ccc(-c3ccc(O[C@H]4C[C@]5(C)CCC[C@@](C)(N5)[C@H]4F)nn3)c(O)c2)cc1=O (single isomer, unassigned) [149-ENT1] | 76 | 79 | 22 | 22.3 | 486 | 16 to 50 | 51 to 100 | 16 to 50 |
| Cn1ccc2cc(-c3ccc(O[C@H]4C[C@]5(C)CC[C@@](C)(N5)[C@H]4F)nn3)c(O)cc2c1=O (single isomer, unassigned) [127-ENT1] | 78 | 70 | 7 | 63.9 | 465 | 51 to 100 | 101 to 500 | 101 to 500 |
| Oc1cc(-c2cn[nH]c2)c(F)cc1-c1ccc(O[C@H]2C[C@@H]3CCC[C@@H](N3)[C@H]2F)nn1 (single isomer, unassigned) [56-ENT2] | 68 | 79 | 13 | 26.9 | 360 | 0.01 to 15 | 0.01 to 15 | 0.01 to 15 |
| Cc1ncc(-c2ccc(-c3ccc(O[C@@H]4C[C@H]5CCC[C@H](N5)[C@@H]4F)nn3)c(O)c2)s1 (single isomer, unassigned) [96-ENT1] | 39 | 72 | 2 | 73.7 | 152 | 16 to 50 | 16 to 50 | 16 to 50 |
| COc1cc(-c2ccc(-c3ccc(O[C@H]4C[C@@H]5CCC[C@@H](N5)[C@H]4F)nn3)c(O)c2)cnn1 (single isomer, unassigned) [76-ENT2] | 82 | 85 | 10 | 41.9 | 399 | 0.01 to 15 | 0.01 to 15 | 0.01 to 15 |
| Cn1cc(-c2cc(O)c(-c3ccc(O[C@@H]4C[C@H]5CCC[C@H](N5)[C@@H]4F)nn3)cc2Cl)cn1 (single isomer, unassigned) [120-ENT1] | 29 | 77 | 8 | 35.1 | 297 | 16 to 50 | 16 to 50 | 16 to 50 |
| Cn1ccc2cc(-c3ccc(O[C@@H]4C[C@H]5CC[C@H](N5)[C@@H]4F)nn3)c(O)cc2c1=O (single isomer, unassigned) [126-ENT2] | 93 | 92 | 13 | 35.1 | 455 | 101 to 500 | 501 to 10000 | 101 to 500 |
| Oc1cc(-c2cn[nH]c2)ccc1-c1ccc(O[C@H]2C[C@@H]3CC(F)(F)[C@H](C2)N3)nn1 (single isomer, unassigned) [46-ENT1] | 70 | 88 | 3 | 183 | 470 | 501 to 10000 | 501 to 10000 | 501 to 10000 |
| Oc1cc(-n2ccnc2)ccc1-c1ccc(O[C@@H]2C[C@H]3CC(F)(F)[C@@H](C2)N3)nn1 (single isomer, unassigned) [51-ENT1] | 90 | 99 | 2 | 322 | 515 | 501 to 10000 | – | – |
| Oc1cc(-c2cn[nH]c2)ccc1-c1ccc(O[C@H]2C[C@@H]3COC[C@@H](N3)[C@H]2F)nn1 (single isomer, unassigned) [123-ENT2] | 87 | 93 | 10 | 70.3 | 698 | 101 to 500 | – | – |
| Oc1cc2nccnc2cc1-c1ccc(O[C@@H]2C[C@H]3CCC[C@H](N3)[C@@H]2F)nn1 (single isomer, unassigned) [104-ENT1] | 95 | 92 | 6 | 71.7 | 457 | 501 to 10000 | – | – |
| C[C@]12CC[C@](C)(N1)[C@H](F)[C@H](Oc1ccc(-c3ccc(-n4cccn4)cc3O)nn1)C2 (single isomer, unassigned) [153-ENT1] | 67 | 76 | 5 | 74.4 | 344 | 51 to 100 | – | – |
| Oc1cc(-c2nnco2)c(F)cc1-c1ccc(O[C@H]2C[C@@H]3CCC[C@@H](N3)[C@H]2F)nn1 (single isomer, unassigned) [143-ENT1] | 81 | 93 | 8 | 65.6 | 557 | 51 to 100 | – | – |
| C[C@@]12CC[C@@](C)(N1)[C@@H](F)[C@@H](Oc1ccc(-c3ccc(C#N)cc3O)nn1)C2 (single isomer, unassigned) [152-ENT2] | 92 | 100 | 5 | 100 | 530 | 501 to 10000 | – | – |
| Cn1ccc(=O)c2cc(-c3ccc(O[C@@H]4C[C@@]5(C)CCC[C@](C)(N5)[C@@H]4F)nn3)c(O)cc21 (single isomer, unassigned) [131-ENT2] | 91 | 96 | 56 | 7.9 | 446 | 501 to 10000 | – | – |
| Oc1cc(-c2cc[nH]n2)ccc1-c1ccc(O[C@H]2C[C@@H]3CCC[C@@H](N3)[C@H]2F)nn1 (single isomer, unassigned) [66-ENT2] | 79 | 78 | 9 | 11.8 | 112 | 51 to 100 | – | – |
| Cn1cc(-c2ccc(-c3ccc(O[C@@H]4C[C@H]5COC[C@H](N5)[C@@H]4F)nn3)c(O)c2)cn1 (single isomer, unassigned) [124-ENT1] | 82 | 88 | 3 | 175 | 515 | 501 to 10000 | – | – |
| Cc1cncc(-c2ccc(-c3ccc(O[C@@H]4C[C@H]5CCC[C@H](N5)[C@@H]4F)nn3)c(O)c2)n1 (single isomer, unassigned) [102-ENT1] | 89 | 90 | 6 | 76.6 | 431 | 101 to 500 | – | – |
| CN(C)C(=O)c1cc2cc(O)c(-c3ccc(O[C@@H]4C[C@@]5(C)CCC[C@](C)(N5)[C@@H]4F)nn3)cc2o1 (single isomer, unassigned) [155-ENT1] | 90 | 95 | 16 | 37.1 | 594 | 501 to 10000 | – | – |
